Source: patent US4968669A, “Parathyroid hormone antagonists” (Merck & Co., Inc., priority 1989, dated 1990)

What was measured:
[1] = biological target: T1, PTH receptor in bovine renal cortical plasma membranes (Bos taurus, UniProt Q1LZF7); test: PTH binding assay, bovine renal cortical plasma membranes, radioligand [Nle8,18,125I-Tyr34]bPTH(1-34)NH2; details: 30 min at 21° C
T1 construct: from tissue; host or cells: bovine renal cortex, plasma membranes
T1 sequence (Q1LZF7 29-589): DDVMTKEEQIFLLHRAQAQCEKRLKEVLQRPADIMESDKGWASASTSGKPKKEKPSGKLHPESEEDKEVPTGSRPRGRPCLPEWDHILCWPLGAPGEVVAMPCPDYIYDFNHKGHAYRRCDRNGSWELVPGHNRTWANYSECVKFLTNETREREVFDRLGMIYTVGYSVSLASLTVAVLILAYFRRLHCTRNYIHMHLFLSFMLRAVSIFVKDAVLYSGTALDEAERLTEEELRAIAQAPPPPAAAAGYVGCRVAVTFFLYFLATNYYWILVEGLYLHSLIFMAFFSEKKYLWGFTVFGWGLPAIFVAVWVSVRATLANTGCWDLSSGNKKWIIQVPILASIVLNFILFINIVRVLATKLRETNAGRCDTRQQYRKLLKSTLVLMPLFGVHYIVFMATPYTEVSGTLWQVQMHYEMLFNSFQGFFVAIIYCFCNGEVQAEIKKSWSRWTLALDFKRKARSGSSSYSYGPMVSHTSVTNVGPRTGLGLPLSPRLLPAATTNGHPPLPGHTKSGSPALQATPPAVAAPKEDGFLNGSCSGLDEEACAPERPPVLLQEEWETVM
Procedure: Bovine renal cortical plasma membranes were incubated with radioligand (25,000 cpm) in the absence or presence of PTH analogues in a Tris containing buffer (250 μl) for 30 min. at 21° C. Once equilibrium was reached, bound and free radioligand were separated by centrifugation.

[2] = biological target: T2, I^125 -labeled PTH binding to rat osteosarcoma cell line ROS 17/2.8 (Rattus norvegicus, UniProt P25961); test: PTH binding assay, ROS 17/2.8 cells
T2 construct: bone-derived rat osteosarcoma cell line ROS 17/2.8; endogenous in cells; host or cells: ROS 17/2.8 rat osteosarcoma cells
T2 sequence (P25961 27-591): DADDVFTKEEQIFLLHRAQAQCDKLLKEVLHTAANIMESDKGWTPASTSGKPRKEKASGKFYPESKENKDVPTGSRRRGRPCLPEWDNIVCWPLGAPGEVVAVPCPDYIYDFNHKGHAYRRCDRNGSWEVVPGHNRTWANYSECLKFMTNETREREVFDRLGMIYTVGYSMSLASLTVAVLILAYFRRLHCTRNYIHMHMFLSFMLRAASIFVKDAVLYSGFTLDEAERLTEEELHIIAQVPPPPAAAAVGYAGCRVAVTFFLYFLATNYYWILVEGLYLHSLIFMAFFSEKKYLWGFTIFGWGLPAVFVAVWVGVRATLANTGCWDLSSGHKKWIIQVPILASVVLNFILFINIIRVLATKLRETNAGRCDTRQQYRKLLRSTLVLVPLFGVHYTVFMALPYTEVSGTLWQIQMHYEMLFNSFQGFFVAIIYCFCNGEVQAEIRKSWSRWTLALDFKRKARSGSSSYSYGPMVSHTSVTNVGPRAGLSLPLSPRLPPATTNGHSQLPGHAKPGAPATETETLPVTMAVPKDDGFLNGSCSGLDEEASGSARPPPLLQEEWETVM

[3] = biological target: T3, I^125 -labeled PTH binding to human osteosarcoma cells (BIO) (Homo sapiens, UniProt Q03431); test: PTH binding assay (human osteosarcoma cells)
T3 construct: endogenous in cells; host or cells: human osteosarcoma cells (BIO)
T3 sequence (Q03431 27-593): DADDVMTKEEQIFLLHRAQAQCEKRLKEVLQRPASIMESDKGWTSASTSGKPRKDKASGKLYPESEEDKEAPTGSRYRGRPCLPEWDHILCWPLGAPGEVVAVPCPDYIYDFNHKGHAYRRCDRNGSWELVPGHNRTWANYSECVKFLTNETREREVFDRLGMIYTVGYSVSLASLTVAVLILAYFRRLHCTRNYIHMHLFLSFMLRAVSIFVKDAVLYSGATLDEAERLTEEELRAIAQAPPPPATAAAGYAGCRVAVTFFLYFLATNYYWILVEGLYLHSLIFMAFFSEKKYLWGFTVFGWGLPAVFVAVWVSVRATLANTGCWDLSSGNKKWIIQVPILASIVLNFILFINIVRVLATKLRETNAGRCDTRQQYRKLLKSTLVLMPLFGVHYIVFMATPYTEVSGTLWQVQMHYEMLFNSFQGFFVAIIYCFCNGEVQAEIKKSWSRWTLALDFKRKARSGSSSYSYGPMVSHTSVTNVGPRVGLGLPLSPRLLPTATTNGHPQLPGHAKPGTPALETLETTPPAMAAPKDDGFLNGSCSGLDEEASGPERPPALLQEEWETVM
From the text: The results are as follows:

[4] = biological target: T4, I^125 -labeled PTH binding to canine renal cortical membranes (Canis lupus familiaris, UniProt Q9TU31); test: PTH binding assay (canine kidney)
T4 construct: from tissue; host or cells: canine renal cortex, membranes
T4 sequence (Q9TU31 29-595): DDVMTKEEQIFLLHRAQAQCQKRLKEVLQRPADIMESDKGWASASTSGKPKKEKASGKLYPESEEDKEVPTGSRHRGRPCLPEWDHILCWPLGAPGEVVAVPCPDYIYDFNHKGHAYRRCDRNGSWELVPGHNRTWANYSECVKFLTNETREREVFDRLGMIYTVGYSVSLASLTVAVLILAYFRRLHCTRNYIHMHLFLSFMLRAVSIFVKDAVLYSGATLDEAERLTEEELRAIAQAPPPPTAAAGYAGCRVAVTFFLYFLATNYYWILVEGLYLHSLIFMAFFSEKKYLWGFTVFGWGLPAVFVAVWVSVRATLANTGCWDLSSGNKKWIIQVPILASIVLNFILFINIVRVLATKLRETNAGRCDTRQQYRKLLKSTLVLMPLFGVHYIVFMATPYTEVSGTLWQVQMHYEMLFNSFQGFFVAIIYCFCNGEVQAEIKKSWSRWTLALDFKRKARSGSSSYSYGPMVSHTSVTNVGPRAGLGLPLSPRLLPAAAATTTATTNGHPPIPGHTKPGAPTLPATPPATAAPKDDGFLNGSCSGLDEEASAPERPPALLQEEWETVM

SMILES	Ki [1]	Ki [2]	Ki [3]	Ki [4]
CCCC[C@H](NC(=O)[C@H](CO)NC(=O)[C@H](CO)NC(=O)[C@H](CC(C)C)NC(=O)[C@H](Cc1c[nH]cn1)NC(=O)[C@H](CCCCN)NC(=O)CNC(=O)[C@H](CC(C)C)NC(=O)[C@H](CC(N)=O)NC(=O)[C@H](Cc1c[nH]cn1)NC(=O)[C@H](CCCC)NC(=O)[C@@H](N)Cc1ccccc1)C(=O)N[C@@H](CCC(=O)O)C(=O)N[C@@H](CCCNC(=N)N)C(=O)N[C@H](C(=O)N[C@@H](CCC(=O)O)C(=O)N[C@@H](Cc1c[nH]c2ccccc12)C(=O)N[C@@H](CC(C)C)C(=O)N[C@@H](CCCNC(=N)N)C(=O)N[C@@H](CCCCN)C(=O)N[C@@H](CCCCN)C(=O)N[C@@H](CC(C)C)C(=O)N[C@@H](CCC(N)=O)C(=O)N[C@@H](CC(=O)O)C(=O)N[C@H](C(=O)N[C@@H](Cc1c[nH]cn1)C(=O)N[C@@H](CC(N)=O)C(=O)N[C@@H](Cc1ccc(O)cc1)C(N)=O)C(C)C)C(C)C [[Nle^8,18,Tyr^34]bPTH(7-34)NH2]	145 ± 13 nM	964 ± 170 nM	–	–
CSCC[C@H](NC(=O)[C@H](CO)NC(=O)[C@H](CO)NC(=O)[C@H](CC(C)C)NC(=O)[C@H](Cc1c[nH]cn1)NC(=O)[C@H](CCCCN)NC(=O)CNC(=O)[C@H](CC(C)C)NC(=O)[C@H](CC(N)=O)NC(=O)[C@H](Cc1c[nH]cn1)NC(=O)[C@H](CCSC)NC(=O)[C@@H](N)Cc1ccccc1)C(=O)N[C@@H](CCC(=O)O)C(=O)N[C@@H](CCCNC(=N)N)C(=O)N[C@H](C(=O)N[C@@H](CCC(=O)O)C(=O)N[C@@H](Cc1c[nH]c2ccccc12)C(=O)N[C@@H](CC(C)C)C(=O)N[C@@H](CCCNC(=N)N)C(=O)N[C@@H](CCCCN)C(=O)N[C@@H](CCCCN)C(=O)N[C@@H](CC(C)C)C(=O)N[C@@H](CCC(N)=O)C(=O)N[C@@H](CC(=O)O)C(=O)N[C@H](C(=O)N[C@@H](Cc1c[nH]cn1)C(=O)N[C@@H](CC(N)=O)C(=O)N[C@@H](Cc1ccc(O)cc1)C(N)=O)C(C)C)C(C)C [[Tyr^34]bPTH(7-34)NH2]	76 ± 9 nM	700 ± 90 nM	5.5 ± 1.6 nM	45.8 ± 11.3 nM
